Legend:
A549 cells = assay: In vitro cytotoxicity, MTT assay, A549; type: cell-based, human; conditions: A549 (non-small cell lung cancer), 48 h continuous drug exposure
Method: (§1) All cell lines used in this study were purchased from the American Type Culture Collection (ATCC, United States). A549, MCF-7, and HeLa were grown in Dulbecco's modified Eagle's medium (containing 10% FBS in a humidified atmosphere of 5% CO2 at 37° C.). HCT116 cells were cultured in Eagle's minimal essential medium (MEM) containing non-essential amino acids, 1 mM sodium pyruvate, […] bovine insulin, and 10% FBS. Cells were trypsinized when sub-confluent from T25 flasks/60 mm dishes and seeded in 96-well plates. The synthesized test compounds were evaluated for their in vitro antiproliferative in four different human cancer cell lines. A protocol of 48 h continuous drug exposure was used, and a MTT cell proliferation assay was used to estimate cell viability or growth. The cell lines were grown in their respective media containing 10% fetal bovine serum and were seeded into 96-well microtiter plates in 200 μL, aliquots at plating densities depending on the doubling time of individual cell lines. The microtiter plates were incubated at 37° C., 5% CO2, 95% air, and 100% relative humidity for 24 h prior to addition of experimental drugs. Aliquots of 2 μL, of the test compounds were added to the wells already containing 198 μL, of cells, resulting in the required final drug concentrations. For each compound, four concentrations (1, 10, 100, and 1000 μM) were evaluated, and each was done in triplicate wells. Plates were incubated further for 48 h, and the assay was terminated by the addition of 10 μL, of 5% MTT and incubated for 60 min at 37° C. Later, the plates were air-dried. Bound stain was subsequently eluted with 100 μL, of DMSO, and the absorbance was read on an multimode plate reader (Tecan M200) at a wavelength of 560 nm. Percent growth was calculated on a plate by plate basis for test wells relative to control wells. The above determinations were repeated thrice. The growth inhibitory effects of the compounds were analyzed by generating dose response curves as a plot of the percentage surviving cells versus compound concentration. The sensitivity of the cancer cells to the test compound was expressed in terms of IC50, a value defined as the concentration of compound that produced 50% reduction as compared to the control absorbance. (A. S. Kumar, M. A. Reddy, N. Jain, C. Kishor, T. R. Murthy, D. Ramesh, B. Supriya, A. Addlagatta, S. V. Kalivendi, B. Sreedhar. Eur. J. Med. Chem. 60 (2013) 305-24).

HeLa cells = assay: In vitro cytotoxicity, MTT assay, HeLa; type: cell-based, human; conditions: HeLa (cervical carcinoma), 48 h continuous drug exposure
Method: as §1

MCF-7 cells = assay: In vitro cytotoxicity, MTT assay, MCF-7; type: cell-based, human; conditions: 48 h continuous drug exposure
Method: as §1

HCT116 cells = assay: In vitro cytotoxicity, MTT assay, HCT116; type: cell-based, human; conditions: 48 h continuous drug exposure
Method: as §1

[1] = tested on: A549, HeLa, MCF-7 and HCT116 cells; assay: In vitro cytotoxicity, MTT assay, summary over all four cancer cell lines; type: cell-based; conditions: Homo sapiens, range over the group of compounds and the four cell lines, read-out: IC50 value range towards all the cancer cell lines
Method: as §1

[2] = Homo sapiens, MCF7, 48 h, MCF-7 (breast cancer)
[3] = Homo sapiens, HCT-116, HCT116 (colon carcinoma)

COc1cc(/C=C\c2cc(OC)c(OC)c(OC)c2)cc(N/C=C\C(=O)c2cc(OC)c(OC)c(OC)c2Br)c1OC [Compound 11y, (Z)-1-(2-bromo-3,4,5-trimethoxyphenyl)-3-((2,3-dimethoxy-5-((Z)-3,4,5-trimethoxystyryl)phenyl)amino)prop-2-en-1-one]
IC50 (A549 cells; Homo sapiens): 0.28 µM | IC50 (HeLa cells; Homo sapiens): 1.58 µM | IC50 (MCF-7 cells; [2]): 5.37 µM | IC50 (HCT116 cells; [3]): 0.3 µM | IC50 [1]: 0.12 to 5.75 µM

COc1ccc(C(=O)/C=C\Nc2c(/C=C\c3cc(OC)c(OC)c(OC)c3)ccc(OC)c2O)cc1[N+](=O)[O-] [Compound 16t, (Z)-3-((2-hydroxy-3-methoxy-6-((Z)-3,4,5-trimethoxystyryl)phenyl)amino)-1-(4-methoxy-3-nitrophenyl)prop-2-en-1-one]
IC50 (A549 cells; Homo sapiens): 7.33 µM | IC50 (HeLa cells; Homo sapiens): 1.66 µM | IC50 (MCF-7 cells; [2]): 0.6 µM | IC50 (HCT116 cells; [3]): 3.98 µM | IC50 [1]: 0.18 to 7.33 µM

COc1ccc(/C=C\c2cc(OC)c(OC)c(OC)c2)cc1N/C=C\C(=O)c1ccc(OC(F)(F)F)cc1 [Compound 10o, (Z)-3-((2-methoxy-5-((Z)-3,4,5-trimethoxystyryl)phenyl)amino)-1-(4-(trifluoromethoxy)phenyl)prop-2-en-1-one]
IC50 (A549 cells; Homo sapiens): 2.69 µM | IC50 (HeLa cells; Homo sapiens): 0.26 µM | IC50 (MCF-7 cells; [2]): 1.32 µM | IC50 (HCT116 cells; [3]): 2.95 µM | IC50 [1]: 0.11 to 4.68 µM

COc1ccc(/C=C\c2cc(OC)c(OC)c(OC)c2)cc1N/C=C\C(=O)c1ccc(OC)c([N+](=O)[O-])c1 [Compound 10t, (Z)-1-(4-methoxy-3-nitrophenyl)-3-((2-methoxy-5-((Z)-3,4,5-trimethoxystyryl)phenyl)amino)prop-2-en-1-one]
IC50 (A549 cells; Homo sapiens): 0.77 µM | IC50 (HeLa cells; Homo sapiens): 0.21 µM | IC50 (MCF-7 cells; [2]): 2 µM | IC50 (HCT116 cells; [3]): 1.29 µM | IC50 [1]: 0.11 to 4.68 µM

COc1ccc(C(=O)/C=C\Nc2cc(/C=C\c3cc(OC)c(OC)c(OC)c3)cc(OC)c2OC)cc1[N+](=O)[O-] [Compound 11t, (Z)-3-((2,3-dimethoxy-5-((Z)-3,4,5-trimethoxystyryl)phenyl)amino)-1-(4-methoxy-3-nitrophenyl)prop-2-en-1-one]
IC50 (A549 cells; Homo sapiens): 0.15 µM | IC50 (HeLa cells; Homo sapiens): 1.2 µM | IC50 (MCF-7 cells; [2]): 1.55 µM | IC50 (HCT116 cells; [3]): 4.79 µM | IC50 [1]: 0.12 to 5.75 µM

COc1ccc(C(=O)/C=C\Nc2cc(/C=C\c3cc(OC)c(OC)c(OC)c3)ccc2OC)cc1O [Compound 10q, (Z)-1-(3-hydroxy-4-methoxyphenyl)-3-((2-methoxy-5-((Z)-3,4,5-trimethoxystyryl)phenyl)amino)prop-2-en-1-one]
IC50 (A549 cells; Homo sapiens): 3.89 µM | IC50 (HeLa cells; Homo sapiens): 0.23 µM | IC50 (MCF-7 cells; [2]): 4.68 µM | IC50 (HCT116 cells; [3]): 0.83 µM | IC50 [1]: 0.11 to 4.68 µM

COc1ccc(C(=O)/C=C\Nc2cc(/C=C\c3cc(OC)c(OC)c(OC)c3)ccc2OC)cc1N [Compound 10u, (Z)-1-(3-amino-4-methoxyphenyl)-3-((2-methoxy-5-((Z)-3,4,5-trimethoxystyryl)phenyl)amino)prop-2-en-1-one]
IC50 (A549 cells; Homo sapiens): 2.4 µM | IC50 (HeLa cells; Homo sapiens): 0.52 µM | IC50 (MCF-7 cells; Homo sapiens, MCF7, MCF-7 (breast cancer)): 0.25 µM | IC50 (HCT116 cells; [3]): 0.77 µM | IC50 [1]: 0.11 to 4.68 µM

COc1ccc(/C=C\c2cc(OC)c(OC)c(OC)c2)cc1OP(=O)(O)O [Ca-4, Combretastatin, reference compound]
IC50 (A549 cells): 0.31 µM | IC50 (HeLa cells): 0.58 µM | IC50 (MCF-7 cells; MCF-7 (breast cancer)): 0.58 µM | IC50 (HCT116 cells; HCT116 (colon carcinoma)): 3.98 µM

COc1cc(C=Cc2cc(OC)c(OC)c(OC)c2)cc(N/C=C\C(=O)c2cn(C)c3ccccc23)c1OC [Compound 11w, (Z)-3-(2,3-dimethoxy-5-(3,4,5-trimethoxystyryl)phenylamino)-1-(1-methyl-1H-indol-3-yl)prop-2-en-1-one]
IC50 (A549 cells; Homo sapiens): 0.14 µM | IC50 (HeLa cells; Homo sapiens): 5.89 µM | IC50 (MCF-7 cells; [2]): 3.39 µM | IC50 (HCT116 cells; [3]): 1.95 µM | IC50 [1]: 0.12 to 5.75 µM

COc1ccc(/C=C\c2cc(OC)c(OC)c(OC)c2)c(N/C=C\C(=O)c2ccc(OC(F)(F)F)cc2)c1O [Compound 16o, (Z)-3-((2-hydroxy-3-methoxy-6-((Z)-3,4,5-trimethoxystyryl)phenyl)amino)-1-(4-(trifluoromethoxy)phenyl)prop-2-en-1-one]
IC50 (A549 cells; Homo sapiens): 1.32 µM | IC50 (HeLa cells; Homo sapiens): 7.08 µM | IC50 (MCF-7 cells; [2]): 2.24 µM | IC50 (HCT116 cells; [3]): 1.95 µM | IC50 [1]: 0.18 to 7.33 µM

COc1ccc(/C=C\c2cc(OC)c(OC)c(OC)c2)cc1N/C=C\C(=O)c1cc(OC)c(OC)c(OC)c1Br [Compound 10y, (Z)-1-(2-bromo-3,4,5-trimethoxyphenyl)-3-((2-methoxy-5-((Z)-3,4,5-trimethoxystyryl)phenyl)amino)prop-2-en-1-one]
IC50 (A549 cells; Homo sapiens): 3.51 µM | IC50 (HeLa cells; Homo sapiens): 0.25 µM | IC50 (MCF-7 cells; [2]): 2.95 µM | IC50 (HCT116 cells; [3]): 3.98 µM | IC50 [1]: 0.11 to 4.68 µM

COc1ccc(C(=O)/C=C\Nc2cc(/C=C\c3cc(OC)c(OC)c(OC)c3)cc(OC)c2OC)cc1N [Compound 11u, (Z)-1-(3-amino-4-methoxyphenyl)-3-((2,3-dimethoxy-5-((Z)-3,4,5-trimethoxystyryl)phenyl)amino)prop-2-en-1-one]
IC50 (A549 cells; Homo sapiens): 0.12 µM | IC50 (HeLa cells; Homo sapiens): 4.27 µM | IC50 (MCF-7 cells; [2]): 5.25 µM | IC50 (HCT116 cells; [3]): 7.59 µM | IC50 [1]: 0.12 to 5.75 µM

COc1ccc(/C=C\c2cc(OC)c(OC)c(OC)c2)c(N/C=C\C(=O)c2cc(OC)c(OC)c(OC)c2)c1O [Compound 16x, (Z)-3-((2-hydroxy-3-methoxy-6-((Z)-3,4,5-trimethoxystyryl)phenyl)amino)-1-(3,4,5-trimethoxyphenyl)prop-2-en-1-one]
IC50 (A549 cells; Homo sapiens): 0.25 µM | IC50 (HeLa cells; Homo sapiens): 0.56 µM | IC50 (MCF-7 cells; [2]): 0.23 µM | IC50 (HCT116 cells; [3]): 3.63 µM | IC50 [1]: 0.18 to 7.33 µM

COc1ccc(C=Cc2cc(OC)c(OC)c(OC)c2)cc1N/C=C\C(=O)c1c[nH]c2ccccc12 [Compound 10v, (Z)-1-(1H-indol-3-yl)-3-(2-methoxy-5-(3,4,5-trimethoxystyryl)phenylamino)prop-2-en-1-one]
IC50 (A549 cells; Homo sapiens): 0.17 µM | IC50 (HeLa cells; Homo sapiens): 0.53 µM | IC50 (MCF-7 cells; [2]): 0.11 µM | IC50 (HCT116 cells; [3]): 0.33 µM | IC50 [1]: 0.11 to 4.68 µM

COc1ccc(C(=O)/C=C\Nc2c(/C=C\c3cc(OC)c(OC)c(OC)c3)ccc(OC)c2O)cc1N [Compound 16u]
IC50 (A549 cells; Homo sapiens): 1.32 µM | IC50 (HeLa cells; Homo sapiens): 2.51 µM | IC50 (MCF-7 cells; [2]): 0.18 µM | IC50 (HCT116 cells; [3]): 1.74 µM | IC50 [1]: 0.18 to 7.33 µM

COc1ccc(/C=C\c2cc(OC)c(OC)c(OC)c2)cc1N/C=C\C(=O)c1cc(OC)c(OC)c(OC)c1 [Compound 10x, (Z)-3-((2-methoxy-5-((Z)-3,4,5-trimethoxystyryl)phenyl)amino)-1-(3,4,5-trimethoxyphenyl)prop-2-en-1-one]
IC50 (A549 cells; Homo sapiens): 1.68 µM | IC50 (HeLa cells; Homo sapiens): 0.26 µM | IC50 (MCF-7 cells; [2]): 0.27 µM | IC50 (HCT116 cells; [3]): 1.51 µM | IC50 [1]: 0.11 to 4.68 µM

COc1ccc(C(=O)/C=C\Nc2c(/C=C\c3cc(OC)c(OC)c(OC)c3)ccc(OC)c2O)cc1O [Compound 16q, (Z)-3-((2-hydroxy-3-methoxy-6-((Z)-3,4,5-trimethoxystyryl)phenyl)amino)-1-(3-hydroxy-4-methoxyphenyl)prop-2-en-1-one]
IC50 (A549 cells; Homo sapiens): 1.58 µM | IC50 (HeLa cells; Homo sapiens): 4.17 µM | IC50 (MCF-7 cells; [2]): 0.2 µM | IC50 (HCT116 cells; [3]): 6.76 µM | IC50 [1]: 0.18 to 7.33 µM

COc1cc(/C=C\c2cc(OC)c(OC)c(OC)c2)cc(N/C=C\C(=O)c2ccc(OC(F)(F)F)cc2)c1OC [Compound 11o, (Z)-3-((2,3-dimethoxy-5-((Z)-3,4,5-trimethoxystyryl)phenyl)amino)-1-(4-(trifluoromethoxy)phenyl)prop-2-en-1-one]
IC50 (A549 cells; Homo sapiens): 0.21 µM | IC50 (HeLa cells; Homo sapiens): 1.86 µM | IC50 (MCF-7 cells; [2]): 5.7 µM | IC50 (MCF-7 cells; MCF-7 (breast cancer)): 5.75 µM | IC50 (HCT116 cells; [3]): 7.08 µM | IC50 [1]: 0.12 to 5.75 µM

COc1ccc(C=Cc2cc(OC)c(OC)c(OC)c2)cc1N/C=C\C(=O)c1cn(C)c2ccccc12 [Compound 10w, (Z)-3-(2-methoxy-5-(3,4,5-trimethoxystyryl)phenylamino)-1-(1-methyl-1H-indol-3-yl)prop-2-en-1-one]
IC50 (A549 cells; Homo sapiens): 0.67 µM | IC50 (HeLa cells; Homo sapiens): 0.46 µM | IC50 (MCF-7 cells; [2]): 1.07 µM | IC50 (HCT116 cells; [3]): 0.37 µM | IC50 [1]: 0.11 to 4.68 µM

COc1ccc(C(=O)/C=C\Nc2cc(/C=C\c3cc(OC)c(OC)c(OC)c3)cc(OC)c2OC)cc1O [Compound 11q, (Z)-3-((2,3-dimethoxy-5-((Z)-3,4,5-trimethoxystyryl)phenyl)amino)-1-(3-hydroxy-4-methoxyphenyl)prop-2-en-1-one]
IC50 (A549 cells; Homo sapiens): 0.32 µM | IC50 (HeLa cells; Homo sapiens): 1.91 µM | IC50 (MCF-7 cells; [2]): 2.09 µM | IC50 (HCT116 cells; [3]): 3.24 µM | IC50 [1]: 0.12 to 5.75 µM
